{"source": "ChEMBL document CHEMBL2069285", "about": "“Synthesis of N-(1-methyl-1H-indol-3-yl)methyleneamines and 3,3-diaryl-4-(1-methyl-1H-indol-3-yl)azetidin-2-ones as potential antileishmanial agents” (Bioorg Med Chem Lett, 2012)"}
{"tested_on": "Leishmania major", "test": "Antileishmanial activity against promastigotes of Leishmania major after 72 hrs by neubauer counting chamber analysis", "format": "functional, organism-based", "units": {"IC50": "µg/mL"}}
{"smiles": "Cn1cc(/C=N/c2ccccc2)c2ccccc21", "IC50": 0.76}
{"smiles": "Cc1ccc(/N=C/c2cn(C)c3ccccc23)cc1", "IC50": 0.66}
{"smiles": "CCOc1ccc(/N=C/c2cn(C)c3ccccc23)cc1", "IC50": 0.88}
{"smiles": "Cn1cc(/C=N/c2ccc(Cl)cc2)c2ccccc21", "IC50": 0.58}
{"smiles": "Cn1cc(/C=N/C(c2ccccc2)c2ccccc2)c2ccccc21", "IC50": 0.6}
{"smiles": "COc1ccc(/N=C/c2cn(C)c3ccccc23)cc1", "IC50": 0.92}
{"smiles": "Cc1ccccc1/N=C/c1cn(C)c2ccccc12", "IC50": 0.57}
{"smiles": "Cn1cc(/C=N/Cc2ccccc2)c2ccccc21", "IC50": 0.71}
{"smiles": "Cn1cc(C2N(c3ccccc3)C(=O)C2(c2ccccc2)c2ccccc2)c2ccccc21", "note": "(stereo unspecified)", "IC50": 0.6}
{"smiles": "Cc1ccc(N2C(=O)C(c3ccccc3)(c3ccccc3)C2c2cn(C)c3ccccc23)cc1", "note": "(stereo unspecified)", "IC50": 0.59}
{"smiles": "CCOc1ccc(N2C(=O)C(c3ccccc3)(c3ccccc3)C2c2cn(C)c3ccccc23)cc1", "note": "(stereo unspecified)", "IC50": 0.56}
{"smiles": "Cn1cc(C2N(c3ccc(Cl)cc3)C(=O)C2(c2ccccc2)c2ccccc2)c2ccccc21", "note": "(stereo unspecified)", "IC50": 0.76}
{"smiles": "Cc1ccc(C2(c3ccc(C)cc3)C(=O)N(c3ccccc3)C2c2cn(C)c3ccccc23)cc1", "note": "(stereo unspecified)", "IC50": 0.56}
{"smiles": "Cc1ccc(N2C(=O)C(c3ccc(C)cc3)(c3ccc(C)cc3)C2c2cn(C)c3ccccc23)cc1", "note": "(stereo unspecified)", "IC50": 0.6}
{"smiles": "CCOc1ccc(N2C(=O)C(c3ccc(C)cc3)(c3ccc(C)cc3)C2c2cn(C)c3ccccc23)cc1", "note": "(stereo unspecified)", "IC50": 0.63}
{"smiles": "Cc1ccc(C2(c3ccc(C)cc3)C(=O)N(c3ccc(Cl)cc3)C2c2cn(C)c3ccccc23)cc1", "note": "(stereo unspecified)", "IC50": 0.57}
